Consider 18 molecules from patent US11234979B2, “Heteroaryl compounds as muscarinic M1 receptor positive allosteric modulators” (SUVEN LIFE SCIENCES LIMITED, priority 2017, dated 2022).

The term EC50 denotes the concentration needed to bring the measured effect to its halfway point. The term AUC(0-t) denotes exposure summed from dosing to a finite time, without extrapolation to infinity. The low end stands for low exposure, the high end for high exposure. The term half-life denotes the time needed for the level to fall by half in the phase considered. Low values mean rapid decline, high ones slow decline. For orientation: clearance means a measure of how efficiently the substance is removed, as volume per time. Usually Cmax stands for the highest concentration seen after dosing.

For series [1], the target named is T1, recombinant human Muscarinic M1 receptor (Homo sapiens, UniProt P11229).
T1 construct: expressed in transfected cells
T1 sequence (P11229 1-460): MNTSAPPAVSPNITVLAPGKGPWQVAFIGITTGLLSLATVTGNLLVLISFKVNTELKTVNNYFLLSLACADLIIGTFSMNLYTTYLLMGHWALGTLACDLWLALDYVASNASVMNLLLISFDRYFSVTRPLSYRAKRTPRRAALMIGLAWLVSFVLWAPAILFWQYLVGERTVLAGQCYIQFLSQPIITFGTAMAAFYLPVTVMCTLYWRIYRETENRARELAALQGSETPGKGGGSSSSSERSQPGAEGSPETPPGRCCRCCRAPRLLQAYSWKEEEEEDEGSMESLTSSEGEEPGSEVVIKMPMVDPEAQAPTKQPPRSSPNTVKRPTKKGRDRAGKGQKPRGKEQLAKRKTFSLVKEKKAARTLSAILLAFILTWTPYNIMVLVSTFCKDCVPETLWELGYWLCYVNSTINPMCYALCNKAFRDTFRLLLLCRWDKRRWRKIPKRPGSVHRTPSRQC
Kind of series: Allosteric potency EC50 for Muscarinic M1 receptor, CHO pCRE-Luc reporter assay with EC20 of acetylcholine. Format: cell-based. The settings on record: CHO cells, in presence of EC20 of acetylcholine, 4 hours. The procedure: Determination of Allosteric Potency EC50 Values for Muscarinic M1 Receptor:
A stable CHO cell line expressing recombinant human Muscarinic M1 receptor and pCRE-Luc reporter system was used for cell-based assay. The assay offers a non-radioactive based approach to determine binding of a compound to GPCRs. In this specific assay, the level of intracellular cyclic AMP which is modulated by activation or inhibition of the receptor is measured. The recombinant cells harbor luciferase reporter gene under the control of cAMP response element.
The above cells were grown in 96 well clear bottom white plates in Hams F12 medium containing 10% fetal bovine serum (FBS). Prior to the addition of compounds or standard agonist, cells were serum starved overnight. Increasing concentrations of test compounds were added along with EC20 of acetylcholine in OptiMEM medium to the cells. The incubation was continued at 37° C. in CO2 incubator for 4 hours. Medium was removed and cells were washed with phosphate buffered saline. The cells were lysed and luciferase activity was measured in a Luminometer. Luminescence counts in each concentrations of test item were normalized to the acetylcholine induced maximum response and the data was analyzed using Graphpad software. EC50 values of the compounds were defined as the concentration required in stimulating the luciferase activity by 50% in presence of EC20 of acetylcholine.
For orientation: A reporter such as luciferase makes a cellular process visible.

Series [2] can be described thus: Rodent pharmacokinetic study. Format: in vivo, Male Wistar rats. The settings on record: male, Wistar, rat, plasma; for bioavailability: oral 3 mg/kg vs i.v. 1 mg/kg. The procedure:
Rodent Pharmacokinetic Study
Male Wistar rats (260±50 grams) were used as experimental animals. Animals were housed individually in polypropylene cage. Two days prior to study, male Wistar rats were anesthetized with isoflurane for surgical placement of jugular vein catheter. Rats were randomly divided for oral (3 mg/kg) and intravenous (i.v) (1 mg/kg) dosing (n=3/group) and fasted overnight before oral dosing (p.o.). However, rats allocated to intravenous (i.v.) dosing food and water was provided ad libitum.
At pre-determined point, blood was collected through jugular vein and replenished with an equivalent volume of normal saline. Collected blood was transferred into a labeled eppendorf tube containing 10 μL of heparin as an anticoagulant. Typically blood samples were collected at following time points: 0.08, 0.25, 0.5, 1, 2, 4, 6, 8, and 24 hours post dose. Blood was centrifuged at 4000 rpm for 10 minutes. Plasma was separated and stored frozen at −80° C. until analysis. The concentrations of the test compounds were quantified in plasma by qualified LC-MS/MS method using suitable extraction technique. The test compounds were quantified in the calibration range around 1-1000 ng/mL in plasma. Study samples were analyzed using calibration samples in the batch and quality control samples spread across the batch.
Pharmacokinetic parameters Cmax, AUCt, T1/2, clearance and bioavailability (F) were calculated by non-compartmental model using standard non-compartmental model by using Phoenix WinNonlin 6.0.2 or 6.0.3 version Software package.

Series [3] in a line: Rodent brain penetration study. Format: in vivo, Male Wistar rats. The settings on record: male, Wistar, brain and plasma, po; rat, 3 mg/kg, p.o. @ 1.0 hr, brain-plasma ratio; read-out: Single dose Rat Brain Penetration (Cb/Cp). The procedure:
Rodent Brain Penetration Study
Male Wistar rats (260±40 grams) were used as experimental animals. Three animals were housed in each cage. Animals were given water and food ad libitum throughout the experiment and maintained on a 12 hours light/dark cycle.
Brain penetration was determined in discrete manner in rats. One day prior to dosing day, male Wistar rats were acclimatized and randomly grouped according to their weight. At each time point (0.5, 1 and 2 hours) n=3 animals were used.
The test compounds were suitably preformulated and administered orally at (free base equivalent) 3 mg/kg. Blood samples were removed via cardiac puncture by using isoflurane anesthesia. The animals were sacrificed to collect brain tissue. Plasma was separated and brain samples were homogenized and stored frozen at −20° C. until analysis. The concentrations of the test compounds in plasma and brain were determined using LC-MS/MS method.
The test compounds were quantified in plasma and brain homogenate by qualified LC-MS/MS method using suitable extraction technique. The test compounds were quantified in the calibration range of 1-500 ng/mL in plasma and brain homogenate. Study samples were analyzed using calibration samples in the batch and quality control samples spread across the batch.

As for `O=C(N[C@H]1CCCC[C@@H]1O)c1cc(Cc2ccc(Br)c(F)c2)c2cccnn12` [Example 3, N-(cis-1S,2S-2-Hydroxycyclohexyl)-5-(4-bromo-3-fluorobenzyl)-pyrrolo[1,2-b]pyridazine-7-carboxamide], the 50% effective concentration (EC50) in series [1] amounted to 0.653 µM. In series [2] (iv, i.v. 1 mg/kg), the AUC(0-t) was 951 ± 213 ng·h/mL, the half-life is 3.5 ± 1.1 h and the clearance was determined as 17 ± 3 mL/min/kg. Also, the bioavailability in series [2] is 49 ± 27%. Further, in series [2] (oral 3 mg/kg), the AUC(0-t) turned out to be 1390 ± 780 ng·h/mL, the Cmax stood at 132 ± 31 ng/mL and the half-life was 3.6 ± 0.2 h. Moreover, the Kp at 1 h in series [3] turned out to be 1.9 ± 0.27.
Turning to `O=C(N[C@H]1CCCC[C@@H]1O)c1cc(Cc2ccc3c(c2)CCO3)c2cccnn12` [Example 4, N-(cis-1S,2S-2-Hydroxycyclohexyl)-5-(2,3-dihydrobenzofuran-5-ylmethyl)-pyrrolo[1,2-b]pyridazine-7-carboxamide], the EC50 in series [1] is 0.836 µM. In series [2] (iv, i.v. 1 mg/kg), this molecule had an AUC(0-t) of 599 ± 58 ng·h/mL, a half-life of 2.4 ± 0.9 h and a clearance of 27 ± 3.4 mL/min/kg. For the same molecule, in series [2], the bioavailability worked out at 25 ± 4%. In series [2] (oral 3 mg/kg), this molecule showed an AUC(0-t) of 457 ± 73 ng·h/mL, a Cmax of 105 ± 3 ng/mL and a half-life of 3.9 ± 1.4 h. In addition, the Kp at 1 h in series [3] was found to be 1.31 ± 0.11.
As to `O=C(N[C@H]1CCCC[C@@H]1O)c1cc(Cc2ccc(-n3cccn3)cc2)c2cccnn12` [Example 21, N-(cis-1S,2S-2-Hydroxycyclohexyl)-5-(4-pyrazol-1-ylbenzyl)-pyrrolo[1,2-b]pyridazine-7-carboxamide], the EC50 in series [1] stood at 0.179 µM. In series [2] (iv, i.v. 1 mg/kg), this molecule gave an AUC(0-t) of 3700 ± 768 ng·h/mL, a half-life of 2.5 ± 0.7 h and a clearance of 4.6 ± 0.9 mL/min/kg. In addition, the bioavailability in series [2] was 49 ± 12%. In series [2] (oral 3 mg/kg), this molecule gave an AUC(0-t) of 5470 ± 1370 ng·h/mL, a Cmax of 687 ± 169 ng/mL and a half-life of 3.4 ± 1.01 h. Besides, in series [3], the Kp at 1 h is 0.24 ± 0.02.
Consider `Cn1cc(-c2ccc(Cc3cc(C(=O)N[C@H]4CCCC[C@@H]4O)n4ncccc34)cc2F)cn1` [Example 33, N-(cis-1S,2S-2-Hydroxycyclohexyl)-5-[3-fluoro-4-(1-methyl-1H-pyrazol-4-yl)-benzyl]-pyrrolo[1,2-b]pyridazine-7-carboxamide], for which, in series [1], the EC50 worked out at 0.259 µM. In addition, in series [2] (iv, i.v. 1 mg/kg), the AUC(0-t) amounted to 908 ± 164 ng·h/mL, the half-life was 1.3 ± 0.2 h and the clearance worked out at 19 ± 3.8 mL/min/kg. Moreover, in series [2], the bioavailability turned out to be 103 ± 0.7%. In series [2] (oral 3 mg/kg), the AUC(0-t) came to 2820 ± 20 ng·h/mL, the concentration peaked (Cmax) at 414 ± 21 ng/mL and the half-life was 2.7 ± 0.1 h. For the same molecule, the Kp at 1 h in series [3] was found to be 0.2 ± 0.001.
As to `Cn1cc(-c2cccc(Cc3cc(C(=O)N[C@H]4CCCC[C@@H]4O)n4ncccc34)c2)cn1` [Example 38, N-(cis-1S,2S-2-Hydroxycyclohexyl)-5-[3-(1-methyl-1H-pyrazol-4-yl)-benzyl]-pyrrolo[1,2-b]pyridazine-7-carboxamide], in series [1], the EC50 came out at 1.53 µM.
Still for that read-out and setting: the same measure for `Cn1cc(-c2ccc(Cc3cc(C(=O)NC4CCOCC4O)n4ncccc34)cc2)cn1` (centres unmarked) [Example 39, N-(3-Hydroxytetrahydropyran-4-yl)-5-[4-(1-methyl-1H-pyrazol-4-yl)-benzyl]-pyrrolo[1,2-b]pyridazine-7-carboxamide]: 0.291 µM; for `Cn1cc(-c2cc(Cc3cc(C(=O)N[C@H]4CCCC[C@@H]4O)n4ncccc34)ccn2)cn1` [Example 40, N-(cis-1S,2S-2-Hydroxycyclohexyl)-5-[2-(1-methyl-1H-pyrazol-4-yl)-pyridin-4-ylmethyl]-pyrrolo[1,2-b]pyridazine-7-carboxamide]: 1.65 µM.
On the same count and under the same terms, the same measure for `O=C(N[C@H]1CCCC[C@@H]1O)c1cc(Cc2ccc(Br)cc2)n2cccc(F)c12` [Example 41, N-(cis-1S,2S-2-Hydroxycyclohexyl)-3-(4-bromobenzyl)-8-fluoroindolizine-1-carboxamide]: 0.236 µM; for `O=C(N[C@H]1CCCC[C@@H]1O)c1cc(Cc2ccccc2)n2cccc(F)c12` [Example 42, N-(cis-1S,2S-2-Hydroxycyclohexyl)-3-benzyl-8-fluoroindolizine-1-carboxamide]: 1.13 µM.
On the same count and under the same terms, the same measure for `O=C(N[C@H]1CCCC[C@@H]1O)c1cc(Cc2ccnc(Cl)c2)n2cccc(F)c12` [Example 43, N-(cis-1S,2S-2-Hydroxycyclohexyl)-3-(2-chloropyridine-4-ylmethyl)-8-fluoroindolizine-1-carboxamide]: 2.06 µM; for `COc1ccc(Cc2cc(C(=O)N[C@H]3CCCC[C@@H]3O)c3c(F)cccn23)cc1` [Example 44, N-(cis-1S,2S-2-Hydroxycyclohexyl)-3-(4-methoxybenzyl)-8-fluoroindolizine-1-carboxamide]: 1.59 µM.
As to `O=C(N[C@H]1CCCC[C@@H]1O)c1cc(Cc2ccc(-c3cscn3)cc2)n2cccc(F)c12` [Example 45, N-(cis-1S,2S-2-Hydroxycyclohexyl)-3-(4-thiazol-4-yl-benzyl)-8-fluoroindolizine-1-carboxamide], in series [1], the EC50 stood at 3.19 µM.
The same measure, in the same setting: next, `O=C(NC1CCOCC1O)c1cc(Cc2ccnc(Cl)c2)n2cccc(F)c12` (centres unmarked) [Example 46, N-(3-Hydroxytetrahydropyran-4-yl)-3-(2-chloropyridine-4-ylmethyl)-8-fluoroindolizine-1-carboxamide]: 0.463 µM; `COc1ccc(Cc2cc(C(=O)NC3CCOCC3O)c3c(F)cccn23)cc1` (centres unmarked) [Example 47, N-(3-Hydroxytetrahydropyran-4-yl)-3-(4-methoxybenzyl)-8-fluoroindolizine-1-carboxamide]: 1.11 µM.
With `Cn1cc(-c2ccc(Cc3cc(C(=O)N[C@H]4CCCC[C@@H]4O)c4c(F)cccn34)cc2)cn1` [Example 48, N-(cis-1S,2S-2-Hydroxycyclohexyl)-5-[4-(1-methyl-1H-pyrazol-4-yl)-benzyl]-8-fluoroindolizine-1-carboxamide], the concentration giving a half-maximal response (EC50) in series [1] stood at 0.166 µM.
On the same count and under the same terms, the same measure for `Cn1cc(-c2ccc(Cc3cc(C(=O)NC4CCOCC4O)c4c(F)cccn34)cc2)cn1` (centres unmarked) [Example 49, N-(3-Hydroxytetrahydropyran-4-yl)-3-(4-(1-methyl-1H-pyrazol-4-yl)-benzyl)-8-fluoroindolizine-1-carboxamide]: 1.21 µM.
Regarding `Cn1cc(-c2ccc(Cc3cc(C(=O)NC4CCOCC4)c4c(F)cccn34)cc2)cn1` [Example 50, N-(Tetrahydropyran-4-yl)-3-(4(1-methyl-1H-pyrazol-4-yl)-benzyl)-8-fluoroindolizine-1-carboxamide], the EC50 in series [1] was 2.53 µM.
The same measure, in the same setting: next, `Cn1cc(-c2ccc(Cc3cc(C(=O)NC4COCCC4O)c4c(F)cccn34)cc2)cn1` (centres unmarked) [Example 51, N-(4-Hydroxytetrahydropyran-3-yl)-3-(4-(1-methyl-1H-pyrazol-4-yl)-benzyl)-8-fluoroindolizine-1-carboxamide]: 3.65 µM.
